Data: patent US8450354B2, “Substituted imidazo[1,2-b]pyridazine derivatives, pharmaceutical compositions, and methods of use as β-secretase inhibitors” (High Point Pharmaceuticals, LLC, priority 2010, dated 2013)

Legend:
[1] = biological target: T1, BACE-1 enzyme (Homo sapiens, UniProt P56817); assay: BACE Fluorescence Resonance Energy Transfer (FRET) Assay; assay type: biochemical; details: pH 4-4.5, 30 min pre-incubation, about 1.5 hours reaction, asterisk = mean
T1 construct: purchased R & D Systems 931AS
T1 sequence (P56817 46-457 limits assumed): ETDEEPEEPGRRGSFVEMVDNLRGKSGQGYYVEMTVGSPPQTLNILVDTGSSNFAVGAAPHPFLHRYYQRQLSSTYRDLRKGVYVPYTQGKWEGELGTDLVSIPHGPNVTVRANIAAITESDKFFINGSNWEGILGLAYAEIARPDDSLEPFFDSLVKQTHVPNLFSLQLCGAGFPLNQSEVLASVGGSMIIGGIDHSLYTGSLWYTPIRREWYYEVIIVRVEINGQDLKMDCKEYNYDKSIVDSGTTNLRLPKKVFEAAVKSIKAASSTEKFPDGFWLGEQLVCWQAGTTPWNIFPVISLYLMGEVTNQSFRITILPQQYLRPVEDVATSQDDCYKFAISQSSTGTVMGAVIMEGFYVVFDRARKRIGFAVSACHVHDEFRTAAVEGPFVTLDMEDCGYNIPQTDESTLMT
Procedure: BACE Fluorescence Resonance Energy Transfer (FRET) Assay
In the following assay, the proteolytic activity of BACE is measured by observing cleavage of a fluorescent group from a peptide substrate containing a rhodamine fluorescent donor and a quenching acceptor.
The inhibitory activity of compounds of Formula (I) may be compared to a statine derived control inhibitor STA200 (MP Biomedical Cat. #STA-200). The cleavage reaction occurs when a BACE-1 substrate (Invitrogen, Cat. #P2986) was added to a reaction mixture containing BACE-1 enzyme (R & D Systems, Cat. #931AS) and allowed to proceed for about 1.5 hours. Fluorescence, used as a marker of BACE activity, is monitored using 540 nm excitation and 585 nm emission wavelengths (Envision, Perkin Elmer).
A typical assay reaction contains BACE-1 enzyme-in assay buffer (50 mM sodium acetate, pH 4-4.5, 0.01% CHAPS (3-[(3-Cholamidopropyl)dimethylammonio]-1-propanesulfonate), 0.0125% TritonX-100, 0.006% EDTA) which is pre-incubated for 30 minutes with test compound in 7.5% DMSO. The reaction is initiated with the addition of BACE-1 substrate in assay buffer and allowed to proceed for about 1.5 hours at room temperature. Assays are conducted in black 384-well microtiter plates and scanned at room temperature using 540 nm excitation and 585 nm emission wavelengths.
In some instances, the percent inhibition at a given concentration is reported instead of the IC50.

[2] = Aβ Cell Based Assay (Aβ1-40 secretion, ELISA); parameters: species or system human; details: Homo sapiens, HEK293; HEK-APPwt cells, 6 hours incubation, reduction of Aβ1-40 secretion; asterisk = mean
Procedure: Aβ Cell Based Assay Procedure
In the following assay, the proteolytic activity of BACE in cells exposed to varying concentrations of a compound of interest is measured by observing the amount of Aβ1-40 secreted from HEK293 cells (Human Embryonic Kidney epithelial cell line) stably expressing wildtype human APP695 protein (HEK-APPwt cells).
HEK-APPwt cells were grown in high glucose DMEM (Dulbecco's Modified Eagles Medium SIGMA Cat. #D5796) supplemented with 25 mM HEPES (4-(2-hydroxyethyl)-1-piperazineethanesulfonic acid) (pH 7.4) (Invitrogen Cat. #15630-114), 0.1 mM NEAA (Non-essential Amino Acids) (BioWhittaker Cat. #13-114E), 10% fetal bovine serum (SIGMA Cat. #F4135) and 250 μg/mL hygromycin (Invitrogen Cat. #10687-010) in T-225 flasks at 37° C. with 5% CO2 and humidity control.
Test compounds were initially prepared in DMSO and diluted with DMEM media containing 2% FBS (Fetal bovine serum). Ten standard compound solutions were prepared having a range of concentrations. The standard compound solutions were used to determine the EC50 of the test compound. The range of concentrations chosen may depend on the compound's predicted potency.
To prepare cells for the assay, a flask containing HEK-APPwt cells were trypsinized briefly (1 mL trypsin), and once the cells detached, 4 mL of 10% FBS-DMEM was added to the flask. The detached cells were centrifuged at 900 rpm for 5 min to form a pellet.
The HEK-APPwt cell pellet was re-suspended with 10 mL DMEM media containing 2% FBS. 80 μL of the cell suspension was added to each well of a 96-well cell culture plate to give 100×10^4 cells/ml. 10 μL of a standard compound solution was added to each well of the 96-well cell culture plate followed by 10 μL of Alamar blue solution. The cells were incubated at 37° C. in a 5% CO2 incubator for 6 hours.
At the end of the incubation, the plates were removed from incubator, and the supernatant was collected. Aβ1-40 concentration in the medium was measured by using a commercial Aβ1-X ELISA kit (IBL, Japan Cat. #27729). Briefly, the ELISA plates were coated with an anti-human Aβ (N)(82E1) mouse IgG monoclonal antibody. A horseradish peroxidase conjugated anti-human Aβ11-28 mouse IgG monoclonal antibody was used for detection. The cell culture supernatant was diluted with EIA buffer+protease inhibitors (kit buffer containing protease inhibitors (1 mL PI/30 mL buffer)). A 100 μL aliquot of the diluted supernatant was added to each well of the ELISA plate and incubated for 6 hrs at 4° C. The ELISA plate was washed 8 times with phosphate buffered saline (PBS) containing 0.05% TWEEN 20.
A 100 μL of detection antibody was then added and incubated for 1 hour at 4° C. The plate was washed 8 times with PBS buffer containing 0.05% Tween 20 followed by addition of 100 μL of the chromogen tetramethylbenzidine (TMB). The plate was incubated in the dark at room temperature for about 30 min and a stop solution (1N H2SO4) was added.
The intensity of the color developed was measured at 450 nm. The optical density at 450 nm (OD450) is proportional to the concentration of human Aβ1-40 secreted by the cell. As a reference, N—[N-(3,5-difluorophenacetyl-L-alanyl)]—S-phenylglycine t-butyl ester (DAPT, a γ-secretase inhibitor) was used to indicate 100% inhibition of […]. Thus, the assay measures the ability of a compound of interest to reduce Aβ1-40 secretion. Compound potency is reported in Table 3 as the EC50 by calculating the percent inhibition at all concentration levels and the data were fit with non-linear curve fitting algorithm using GraphPad Prism.

| IC50 [1] [µM] | EC50 [2] [µM] | Structure (SMILES) |
| --- | --- | --- |
| 0.225 | 0.7 | COc1ccc2nc(C(=O)Nc3nc4cc(-c5cc(F)cc(Cl)c5)ccc4[nH]3)cn2n1 [Example 7] |
| 0.316 | 1.35 | O=C(Nc1nc2cc(-c3cccc(C(F)(F)F)c3)ccc2[nH]1)c1cn2nc(OCCN3CCCC3=O)ccc2n1 [Example 25] |
| 0.222 | 1.41 | O=C(Nc1nc2cc(-c3cccc(C(F)(F)F)c3)ccc2[nH]1)c1cn2nc(OCCN3CCNC3=O)ccc2n1 [Example 26] |
| 0.262 | 0.58 | O=C(Nc1nc2cc(-c3cccc(C(F)(F)F)c3)ccc2[nH]1)c1cn2nc(OCCN3CCOCC3)ccc2n1 [Example 27, 6-(2-Morpholin-4-yl-ethoxy)-imidazol[1,2-b]pyridazine-2-carboxylic acid [5-(3-trifluoromethyl-phenyl)-1H-benzoimidazol-2-yl]-amide] |
| 0.314 | 2.58 | O=C(Nc1nc2cc(-c3cccc(OC(F)(F)F)c3)ccc2[nH]1)c1cn2nc(OCCn3cncn3)ccc2n1 [Example 29] |
| 0.313 | 2.5 | O=C(Nc1nc2cc(-c3cccc(OC(F)(F)F)c3)ccc2[nH]1)c1cn2nc(OCCN3CCCC3=O)ccc2n1 [Example 31] |
| 0.234 | 0.59 | O=C(Nc1nc2cc(-c3cccc(OC(F)(F)F)c3)ccc2[nH]1)c1cn2nc(OCCN3CCOCC3)ccc2n1 [Example 32] |
| 0.315 | 3.13 | CN1CCN(CCOc2ccc3nc(C(=O)Nc4nc5cc(-c6cccc(OC(F)(F)F)c6)ccc5[nH]4)cn3n2)CC1 [Example 35] |
| 0.307 | 2.68 | O=C(Nc1nc2cc(-c3cccc(C(F)(F)F)c3)ccc2[nH]1)c1cn2nc(OCCN3CCCCCC3)ccc2n1 [Example 40] |
| 0.232 | 2.62 | CN1CCN(CCOc2ccc3nc(C(=O)Nc4nc5cc(-c6cccc(C(F)(F)F)c6)ccc5[nH]4)cn3n2)CC1 [Example 41] |
| 0.335 | 2.88 | CN(C)CCN(C)CCOc1ccc2nc(C(=O)Nc3nc4cc(-c5cccc(C(F)(F)F)c5)ccc4[nH]3)cn2n1 [Example 43] |
| 0.198 | 1.31 | O=C(Nc1nc2cc(-c3cccc(C(F)(F)F)c3)ccc2[nH]1)c1cn2nc(OCCn3cncn3)ccc2n1 [Example 45] |
| 0.248 | 3.81 | O=C(Nc1nc2cc(-c3cccc(C(F)(F)F)c3)ccc2[nH]1)c1cn2nc(OCCN3CCCCC3)ccc2n1 [Example 46] |
| 0.24 | 1.96 | O=C(Nc1nc2cc(-c3cccc(OC(F)(F)F)c3)ccc2[nH]1)c1cn2nc(OCCN3CCCCC3)ccc2n1 [Example 47] |
| 0.21 | 1.8 | CN(C)CCN(C)CCOc1ccc2nc(C(=O)Nc3nc4cc(-c5cc(F)cc(Cl)c5)ccc4[nH]3)cn2n1 [Example 49] |
| 0.267 | 0.58 | O=C(Nc1nc2cc(-c3cc(F)cc(Cl)c3)ccc2[nH]1)c1cn2nc(OCCN3CCOCC3)ccc2n1 [Example 50] |
| 0.216 | 2.62 | O=C(Nc1nc2cc(-c3cc(F)cc(Cl)c3)ccc2[nH]1)c1cn2nc(OCCN3CCCCCC3)ccc2n1 [Example 53] |
| 0.211 | 0.87 | O=C(Nc1nc2cc(-c3cc(F)cc(Cl)c3)ccc2[nH]1)c1cn2nc(OCCN3CCCC3=O)ccc2n1 [Example 54] |
| 0.22 | 0.97 | O=C(Nc1nc2cc(-c3ccc(Cl)c(C(F)(F)F)c3)ccc2[nH]1)c1cn2nc(OCCN3CCOCC3)ccc2n1 [Example 64] |

| IC50 [1] [µM] | EC50 [2] [µM] | Structure (SMILES) |
| --- | --- | --- |
| 0.3 | 2.93 | CN1CC[C@H](Oc2ccc3nc(C(=O)Nc4nc5cc(-c6cc(F)cc(Cl)c6)ccc5[nH]4)cn3n2)C1 [Example 69] |
| 0.18 | 1.47 | CC1(C)CCC(c2ccc3[nH]c(NC(=O)c4cn5nc(N6CCC(O)CC6)ccc5n4)nc3c2)CC1 [Example 83] |
| 0.191 | 1.71 | CC1(C)CCC(c2ccc3[nH]c(NC(=O)c4cn5nc(N6CCCC(O)C6)ccc5n4)nc3c2)CC1 (centres unmarked) [Example 84] |
| 0.089 | 2.27 | CC1(C)CCC(c2ccc3[nH]c(NC(=O)c4cn5nc(N6CC[C@@H](O)C6)ccc5n4)nc3c2)CC1 [Example 85] |
| 0.123 | 2.46 | CC1(C)CCC(c2ccc3[nH]c(NC(=O)c4cn5nc(N6CC[C@H](O)C6)ccc5n4)nc3c2)CC1 [Example 86] |
| 0.248 | 0.44 | CC1(COc2ccc3nc(C(=O)Nc4nc5cc(-c6cc(F)cc(Cl)c6)ccc5[nH]4)cn3n2)COC1 [Example 98] |
| 0.189 | 0.78 | C[C@H](O)[C@@H](C)Oc1ccc2nc(C(=O)Nc3nc4cc(-c5cccc(C(F)(F)F)c5)ccc4[nH]3)cn2n1 [Example 99] |
| 0.26 | 0.7 | C[C@@H](O)[C@@H](C)Oc1ccc2nc(C(=O)Nc3nc4cc(-c5cccc(C(F)(F)F)c5)ccc4[nH]3)cn2n1 [Example 100] |
| 0.136 | 1.17 | C[C@H](O)[C@H](C)Oc1ccc2nc(C(=O)Nc3nc4cc(-c5cccc(C(F)(F)F)c5)ccc4[nH]3)cn2n1 [Example 101] |
| 0.277 | 0.33 | O=C(Nc1nc2cc(-c3cc(F)cc(Cl)c3)ccc2[nH]1)c1cn2nc(OCC3(CO)CC3)ccc2n1 [Example 104] |
| 0.064 | 1.27 | CC[C@@H](O)COc1ccc2nc(C(=O)Nc3nc4cc(-c5cc(F)cc(Cl)c5)ccc4[nH]3)cn2n1 [Example 105] |
| 0.139 | 0.86 | CC[C@H](O)COc1ccc2nc(C(=O)Nc3nc4cc(-c5cc(F)cc(Cl)c5)ccc4[nH]3)cn2n1 [Example 106] |
| 0.215 | 0.79 | CC(C)[C@@H](O)COc1ccc2nc(C(=O)Nc3nc4cc(-c5cc(F)cc(Cl)c5)ccc4[nH]3)cn2n1 [Example 107] |
| 0.357 | 0.89 | CC(C)[C@H](O)COc1ccc2nc(C(=O)Nc3nc4cc(-c5cc(F)cc(Cl)c5)ccc4[nH]3)cn2n1 [Example 108] |
| 0.251 | 0.48 | CC(C)(O)COc1ccc2nc(C(=O)Nc3nc4cc(-c5cccc(OC(F)(F)F)c5)ccc4[nH]3)cn2n1 [Example 112] |
| 0.528 | 1.71 | O=C(Nc1nc2cc(-c3cc(F)cc(Cl)c3)ccc2[nH]1)c1cn2nc(OCCCO)ccc2n1 [Example 113] |
| 0.279 | 0.33 | CC(C)(O)CCOc1ccc2nc(C(=O)Nc3nc4cc(-c5cc(F)cc(Cl)c5)ccc4[nH]3)cn2n1 [Example 114] |
| 0.318 | 1.06 | C[C@@H](O)CCOc1ccc2nc(C(=O)Nc3nc4cc(-c5cc(F)cc(Cl)c5)ccc4[nH]3)cn2n1 [Example 118] |
